Series [1] has as its system aspergillus fumigatus infection of BEAS2B cells. The experiment in a line: Aspergillus fumigatus infection of bronchial epithelial cells (GM in supernatant). Format: cell-based. The note with it: bronchial epithelial cells infected with Aspergillus fumigatus; read-out: MIC50 Infection of BEAS2B cells. On the procedure: BEAS2B cells were seeded in 96-well plates (100 µL; 30,000 cells / well; Catalogue No 3596, Sigma Aldrich, Dorset, UK) in 10% FBS RPMI-1640 and were then incubated (37° C., 5% CO2) for one day before experimentation. Test compounds (0.5 µL DMSO solution) or vehicle (DMSO) were added to each well to give a final DMSO concentration of 0.5%. BEAS2B cells were incubated with test compounds for 1 hr (35° C., 5% CO2) before infection with aspergillus fumigatus (20 µL; Public Health England) conidia suspension (0.5×10^5 /ml in 10% FBS RPMI-1640). The plate was incubated for 24 hr (35° C., 5% CO2). Supernatant (50 µL) was collected and transferred to a PCR plate (Catalogue No L1402-9700, Starlab, Milton Keynes, UK), which was frozen (-20° C.) until use. After thawing, supernatant (5 µL) was diluted 1:20 by adding R7-PBS solution (95 µL; 1:4 R7 to PBS; Bio-Rad Laboratories, Redmond, WA, USA). GM levels in these samples (50 µL) were measured using Platelia GM-EIA kits (Bio-Rad Laboratories, Redmond, WA, USA). The percentage inhibition for each well was calculated and the IC50 value was calculated from the concentration-response curve generated for each test compound.

The subject of series [2] is Aspergillus fumigatus NCPF2010. Description: Broth microdilution assay (modified EUCAST). The note with it: Aspergillus fumigatus, NCPF2010, read-out: MIC75 against Aspergillus fumigatus isolate NCPF2010. It is filed as cell-based. On the procedure: (§1) This assay was conducted using a modified method published by EUCAST (Rodriguez-Tudela et al., 2008). Spores of aspergillus fumigatus (NCPF2010, NCPF7010 (Methionine 220 mutation), NCPF7099 (Glycine G54 mutation) from Public Health England, Wiltshire; TR34/L98H mutants from St Louis Hospital, Paris, France) were cultured in Sabouraud dextrose agar for 3 days. A stock spore suspension was prepared from a Sabouraud dextrose agar culture by washing with PBS-tween (10 mL; PBS containing 0.05% Tween-20, 100 U/mL Penicillin and 100 U/mL Streptomycin). The spore count was assessed using a Neubauer haemocytometer and then adjusted to 10^6 spores/mL with PBS. A working suspension of spores (2 × 10^5 spores/mL) was prepared in filter sterilised, BSA MOPS RPMI-1640 (50 mL; RPMI-1640 containing 2 mM L-glutamine, 0.5% BSA, 2% glucose, 0.165 M MOPS, buffered to pH 7 with NaOH). For the assay, BSA MOPS RPMI-1640 (50 µL/well) was added throughout the 384-well plate (Catalogue number 353962, BD Falcon, Oxford, UK) first. Test compounds (0.5 µL DMSO solution) were then added in quadruplicate using an Integra VIAFLO 96 (Integra, Zizers, Switzerland), and mixed well using a plate mixer. Subsequently 50 µL of the working spore suspension prepared above was added to all wells except non-spore control wells. For non-spore control wells, BSA MOPS-RPMI solution (50 µL/well) was added instead. The plate was covered with a plastic lid, and incubated (35° C. with ambient air) for 48 hr. The OD of each well at 530 nm was determined using a multi-scanner (Clariostar: BMG, Buckinghamshire, UK). The percentage inhibition for each well was calculated and the MIC50, MIC75 and MIC90 values were calculated from the concentration-response curve generated for each test compound.
A general note: Broth dilution looks for growth in wells or tubes with falling amounts of substance.

In series [3] the test system is Aspergillus fumigatus NCPF7099. Description: Broth microdilution assay (modified EUCAST). Format: cell-based. The conditions noted are these: Aspergillus fumigatus, NCPF7099, n = 3, read-out: MIC75 against Aspergillus fumigatus isolate NCPF7099. As for the experimental part:
as §1

The subject of series [4] is Aspergillus fumigatus L98H (TR34/L98H). Description: Broth microdilution assay (modified EUCAST). Format: cell-based. The note with it: Aspergillus fumigatus, read-out: MIC75 against Aspergillus fumigatus isolate L98H. As for the experimental part:
as §1

Series [5] relates to Aspergillus fumigatus NCPF7100. Description: Broth microdilution assay (modified EUCAST). It is filed as cell-based. The conditions noted are these: Aspergillus fumigatus, NCPF7100, read-out: MIC75 against Aspergillus fumigatus isolate NCPF7100.
Series [6] in a line: Cell viability: resazurin assay. Format: cell-based, human. The conditions noted are these: human, BEAS2B cells; n = 3-5. As for the experimental part:
BEAS2B cells were seeded in 384-well plates (100 µL; 3000 / well /; BD Falcon, Catalogue No 353962) in RPMI-LHC8 (RPMI-1640 and LHC8 media combined in equal proportions) one day before experimentation. For cell-free control wells, RPMI-LHC8 (100 µL) was added. Test compounds (0.5 µL of a DMSO solution) were added to give a final DMSO concentration of 0.5% using an Integra VIAFLO 96 (Integra, Zizers, Switzerland). BEAS2B cells were incubated with each test compound for 1 day (37° C. / 5% CO2 in RPMI-LHC8). After addition of resazurin stock solution (5 µL, 0.04%) the plates were incubated for a further 4 hr (37° C. / 5% CO2). The fluorescence of each well at 545 nm (excitation) and 590 nm (emission) was determined using a multi-scanner (Clariostar: BMG Labtech). The percentage loss of cell viability was calculated for each well relative to vehicle (0.5% DMSO) treatment. Where appropriate, a CC50 value was calculated from the concentration-response curve generated from the concentration-response curve for each test compound.

In brackets after ≈: the same amount, converted by molar mass.

In general, MIC50 refers to an inhibitory concentration at the 50% level, which refers to growth in some studies and to a panel of isolates in others. The term CC50 denotes the concentration at which the toxic effect on the cells reaches its halfway point. In the case of `Cc1cc(N2CCN(c3ccc(C(=O)Nc4cc(F)cc(F)c4)cc3)CC2)ccc1OC[C@@H]1CO[C@@](Cn2cncn2)(c2ccc(F)cc2F)C1` [Example 28, 4-(4-(4-(((3R, 5R)-5-((1H-1,2,4-triazol-1-yl)methyl)-5-(2,4-difluorophenyl)tetrahydrofuran-3-yl)methoxy)3-methylphenyl)piperazin-1-yl)-N-(3,5-difluorophenyl)benzamide], the MIC50 in series [1] turned out to be 0.0117 µM (≈ 0.0082 µg/mL). Also, the MIC in series [2] came to 0.0319 µM (≈ 0.0224 µg/mL); in series [3] it was 0.0266 µM (≈ 0.0186 µg/mL); in series [4], 0.198 µM (≈ 0.139 µg/mL); in series [5], 0.0361 µM (≈ 0.0253 µg/mL). Besides, in series [6], the CC50 at 1 day was greater than 14.3 µM.

As for `COc1cc(N2CCN(c3ccc(OC[C@@H]4CO[C@@](Cn5cncn5)(c5ccc(F)cc5F)C4)c(C)c3)CC2)ccc1C(=O)Nc1ccc(F)cc1` [Example 35, 4-(4-(4-(((3R,5R)-5-((1H-1,2,4-triazol-1-yl)methyl)-5-(2,4-difluorophenyl)tetrahydrofuran-3-yl)methoxy)-3-methylphenyl)piperazin-1-yl)-N-(4-fluorophenyl)-2-methoxybenzamide], the MIC50 in series [1] came to 0.125 µM (≈ 0.0891 µg/mL). Besides, the MIC in series [2] worked out at 0.0634 µM (≈ 0.0452 µg/mL); in series [3] it was 0.109 µM (≈ 0.0777 µg/mL); in series [4], 0.178 µM (≈ 0.127 µg/mL); in series [5], 0.111 µM (≈ 0.0791 µg/mL). This compound had a CC50 at 1 day in series [6] greater than 14 µM.

With `Cc1cc(N2CCN(c3ccc(C(=O)Nc4ccc(F)cc4)cc3)CC2)cc(C)c1OC[C@@H]1CO[C@@](Cn2cncn2)(c2ccc(F)cc2F)C1` [Example 15, 4-(4-(4-(((3R,5R)-5-((1H-1,2,4-triazol-1-yl)methyl)-5-(2,4-difluorophenyl)tetrahydrofuran-3-yl)methoxy)-3,5-dimethylphenyl)piperazin-1-yl)-N-(4-fluorophenyl)benzamide], the MIC50 in series [1] worked out at 0.00764 µM (≈ 0.00532 µg/mL). Also, the MIC in series [2] was 0.029 µM (≈ 0.0202 µg/mL); in series [3] it was 0.0184 µM (≈ 0.0128 µg/mL); in series [4] it was greater than 1.44 µM; in series [5], 0.00845 µM (≈ 0.00589 µg/mL). Further, in series [6], the CC50 at 1 day is greater than 14.4 µM.

As for `Cc1cc(N2CCN(c3ccc(C(=O)Nc4ccc(S(=O)(=O)N(C)C)cc4)cc3)CC2)ccc1OC[C@@H]1CO[C@@](Cn2cncn2)(c2ccc(F)cc2F)C1` [Example 21], the MIC50 in series [1] came out at 0.00386 µM (≈ 0.00298 µg/mL). In addition, the MIC in series [2] came to 0.0374 µM (≈ 0.0289 µg/mL); in series [3], 0.0211 µM (≈ 0.0163 µg/mL); in series [4], 0.0517 µM (≈ 0.0399 µg/mL); in series [5] it was 0.0317 µM (≈ 0.0245 µg/mL). For the same compound, the CC50 at 1 day in series [6] is greater than 13 µM.

As to `Cc1cc(N2CCN(c3ccc(C(=O)Nc4ccc(Cl)c(F)c4)cc3)CC2)ccc1OC[C@@H]1CO[C@@](Cn2cncn2)(c2ccc(F)cc2F)C1` [Example 30, 4-(4-(4-(((3R, 5R)-5-((1H-1,2,4-triazol-1-yl)methyl)-5-(2,4-difluorophenyl)tetrahydrofuran-3-yl)methoxy)-3-methylphenyl)piperazin-1-yl)-N-(4-chloro-3-fluorophenyl)benzamide], the MIC50 in series [1] is 1.05 µM (≈ 0.753 µg/mL). For the same compound, the MIC amounted to 0.0584 µM (≈ 0.0419 µg/mL) in series [2], 0.0347 µM (≈ 0.0249 µg/mL) in series [3], 0.191 µM (≈ 0.137 µg/mL) in series [4] and 0.0413 µM (≈ 0.0296 µg/mL) in series [5]. The same compound registered a CC50 at 1 day in series [6] greater than 13.9 µM.

For `N#Cc1ccc(NC(=O)c2ccc(N3CCN(c4ccc(OCC5CO[C@@](Cn6cncn6)(c6ccc(F)cc6F)C5)c(Cl)c4)CC3)cc2)cc1` (stereo in doubt) [Example 10, 4-(4-(4-(((3R,5R)-5-((1H-1,2,4-triazol-1-yl)methyl)-5-(2,4-difluorophenyl)tetrahydrofuran-3-yl)methoxy)-3-chlorophenyl)piperazin-1-yl)-N-(4-cyanophenyl)benzamide], in series [1], the MIC50 amounted to 0.0145 µM (≈ 0.0103 µg/mL). Besides, the MIC worked out at 0.022 µM (≈ 0.0156 µg/mL) in series [2], 0.00996 µM (≈ 0.00707 µg/mL) in series [3], 0.0812 µM (≈ 0.0577 µg/mL) in series [4] and 0.0295 µM (≈ 0.021 µg/mL) in series [5]. In series [6], this compound showed a CC50 at 1 day greater than 14.1 µM.

Take `CNS(=O)(=O)c1ccc(NC(=O)c2ccc(N3CCN(c4ccc(OC[C@@H]5CO[C@@](Cn6cncn6)(c6ccc(F)cc6F)C5)c(C)c4)CC3)cc2)cc1` [Example 20, 4-(4-(4-(((3R, 5R)-5-((1H-1,2,4-triazol-1-yl)methyl)-5-(2,4-difluorophenyl)tetrahydrofuran-3-yl)methoxy)-3-methylphenyl)piperazin-1-yl)-N-(4-(N-methylsulfamoyl)phenyl)benzamide]: the MIC50 in series [1] is 0.0361 µM (≈ 0.0274 µg/mL). For the same compound, the MIC in series [2] is 0.0188 µM (≈ 0.0142 µg/mL); in series [3] it was 0.0111 µM (≈ 0.00841 µg/mL); in series [4], 0.0461 µM (≈ 0.0349 µg/mL); in series [5], 0.0146 µM (≈ 0.0111 µg/mL). Further, the CC50 at 1 day in series [6] was greater than 13.2 µM.

As to `Cc1cc(N2CCN(c3ccc(C(=O)Nc4ccc(F)cc4)c(C)c3)CC2)ccc1OC[C@@H]1CO[C@@](Cn2cncn2)(c2ccc(F)cc2F)C1` [Example 33, 4-(4-(4-(((3R, 5R)-5-((1H-1,2,4-triazol-1-yl)methyl)-5-(2,4-difluorophenyl)tetrahydrofuran-3-yl)methoxy)-3-methylphenyl)piperazin-1-yl)-N-(4-fluorophenyl)-2-methylbenzamide], the MIC50 in series [1] was 0.0435 µM (≈ 0.0303 µg/mL). For the same compound, the MIC came out at 0.0135 µM (≈ 0.00941 µg/mL) in series [2], 0.0489 µM (≈ 0.0341 µg/mL) in series [3], 0.0679 µM (≈ 0.0473 µg/mL) in series [4] and 0.0236 µM (≈ 0.0164 µg/mL) in series [5]. The same compound came in with a CC50 at 1 day in series [6] greater than 14.4 µM.

With `COc1cc(C(=O)Nc2ccc(F)cc2)ccc1N1CCN(c2ccc(OC[C@@H]3CO[C@@](Cn4cncn4)(c4ccc(F)cc4F)C3)c(C)c2)CC1` [Example 34, 4-(4-(4-(((3R, 5R)-5-((1H-1,2,4-triazol-1-yl)methyl)-5-(2,4-difluorophenyl)tetrahydrofuran-3-yl)methoxy)3-methylphenyl)piperazin-1-yl)-N-(4-fluorophenyl)-3-methoxybenzamide], the MIC50 in series [1] was 0.0219 µM (≈ 0.0156 µg/mL). In addition, the MIC in series [2] stood at 0.0446 µM (≈ 0.0318 µg/mL); in series [3] it was 0.029 µM (≈ 0.0207 µg/mL); in series [4], 0.0739 µM (≈ 0.0527 µg/mL); in series [5], 0.0148 µM (≈ 0.0105 µg/mL). In series [6], this compound came in with a CC50 at 1 day greater than 14 µM.

Take `Cc1cc(N2CCN(c3ccc(C(=O)Nc4ccc(C#N)cn4)cc3)CC2)ccc1OC[C@@H]1CO[C@@](Cn2cncn2)(c2ccc(F)cc2F)C1` [Example 7]: in series [1], the MIC50 was determined as 0.0125 µM (≈ 0.00863 µg/mL). Moreover, the MIC in series [2] stood at 0.00586 µM (≈ 0.00405 µg/mL); in series [3], 0.0141 µM (≈ 0.00974 µg/mL); in series [4] it was 0.0419 µM (≈ 0.0289 µg/mL); in series [5], 0.00407 µM (≈ 0.00281 µg/mL). Further, the CC50 at 1 day in series [6] is greater than 14.5 µM.

Values taken from patent US20230295133A1, “PROCESS FOR PREPARING A COMPOUND USEFUL TO TREAT MYCOSES” (PULMOCIDE LIMITED, priority 2014, published 2023).
